Like-named read-outs stand apart in the source and are kept apart here.
How the values were obtained:
[1] = biological target: guinea pig Kv7.1/KCNE1 channel (Cavia porcellus, UniProt A6Y9U2); experiment: Two-electrode voltage clamp of Kv7.1/KCNE1 expressed in Xenopus laevis oocytes; format: cell-based
From the text: (§1) Isolation of Xenopus laevis oocytes was approved by the Linköping Animal Care and Use Committee (Permits #1941 and #14515) and conforms to national and international guidelines. All procedures conform to the guidelines from Directive 2010/63/EU of the European Parliament on the protection of animals used for scientific purposes. A total of 30 female adult (minimum 1 year of age) Xenopus laevis animals (from Nasco, WI, USA) underwent surgery to isolate oocytes. The frogs were anaesthetized for 15 minutes in a bath of 1.4 g/L MS-222 Sandoz (Ethyl 3-aminobenzoate methanesulfonate, Sigma Aldrich, Stockholm). The depth of anesthesia was monitored by checking for reflexes when the paws were pinched. A small incision was made on the abdomen to expose lobes of oocytes, which were collected using a surgical scissor. The small incision was closed with suture and local anesthesia (Marcain 5 mg/ml and Xylocain 2%, Distansapoteket, Stockholm) topically applied to relieve pain subsequent to surgery. At the experimental endpoint (in association with the 6th surgery), animals were sacrificed by decapitation under deep anesthesia (which was induced by the bath of 1.4 g/L MS-222 Sandoz). ARRIVE guidelines were followed. Note that experiments were performed on isolated oocytes only (no in vivo experiments were performed). Oocytes were isolated and maintained as previously described. The constructs used had the following accession numbers: human Kv7.1: NM_000218; human KCNE1: NM_000219; guinea pig Kv7.1: NM_001172821.1; guinea pig KCNE1: NM_001172972.1; rabbit Kv7.1: XM_008252197.2; rabbit KCNE1: NM_001109822. Oocytes were injected with RNA for human, guinea pig or rabbit Kv7.1 and KCNE1. The amounts injected were 12.5 ng of human Kv7.1 and 7.5 ng of human KCNE1, 1.25 ng of guinea pig Kv7.1 and 1.25 ng of guinea pig KCNE1, and 0.9 ng of rabbit Kv7.1 and 0.55 ng of rabbit KCNE1. Following injection, the oocytes were generally incubated at 16°C for 1 to 2 days.
(§2) Two-electrode voltage clamp recordings were performed at room temperature using a Dagan CA-1B amplifier (Dagan, MN, USA) or an AxoClamp 900A amplifier (Molecular Devices, CA, USA). All chemicals are from Sigma-Aldrich (Stockholm, Sweden), unless stated otherwise. N-arachidonoyl-L-serine (ARA-S) was bought from Cayman Chemicals (MI, USA) and delivered as a stock solution of 26 mM in EtOH from the supplier. The stock solution was stored at −20°C according to supplier instructions. The control solution contained (in mM): 88 NaCl, 1 KCl, 0.4 CaCl2, 0.8 MgCl2, and 15 HEPES (with pH set to 7.4 using NaOH). For ARA-S experiments, the control solution was supplemented with indicated concentrations of ARA-S. The holding voltage was set to −80 mV. Activation curves were generally generated in steps between −80 and + 60 or +80 mV in increments of 10 mV (5-s duration). The tail voltage was set to −20 or −30 mV. Control solution or ARA-S supplemented solution was continuously perfused into the oocyte chamber at a speed of 1 mL/min using a Minipuls 3 peristaltic pump (Gilson, WI, USA). ARA-S was applied until a stable effect on current amplitude was observed, achieved after approximately 10 minutes, monitored by running an application protocol stepping from a holding voltage of −80 mV to a test voltage of 0 mV every 10 seconds. In the time-matched control experiments for rabbit and guinea pig channels, experiments were performed in a similar way as with ARA-S but with EtOH only; i.e. the first control recording was performed in control solution (no vehicle) and the subsequent recordings done with vehicle only added (i.e. EtOH but no ARA-S). The tubing system and recording chamber were cleaned between cells with 70% EtOH and distilled H2O.
(§3) To quantify the voltage dependence of channel opening, tail currents were measured shortly after stepping to the tail voltage and plotted against the preceding activation voltage. […]

[2] = biological target: T1, human Kv7.1/KCNE1 channel (Homo sapiens, UniProt P51787); experiment: as above; format: cell-based
T1 construct: expressed in transfected cells; host or cells: Xenopus laevis oocytes (RNA injection)
From the text: as §1, §2, §3

[3] = biological target: rabbit Kv7.1/KCNE1 channel (Oryctolagus cuniculus, UniProt Q9MYS6); experiment: as above; format: cell-based
Chain of rabbit Kv7.1/KCNE1 channel (Q9MYS6 whole entry): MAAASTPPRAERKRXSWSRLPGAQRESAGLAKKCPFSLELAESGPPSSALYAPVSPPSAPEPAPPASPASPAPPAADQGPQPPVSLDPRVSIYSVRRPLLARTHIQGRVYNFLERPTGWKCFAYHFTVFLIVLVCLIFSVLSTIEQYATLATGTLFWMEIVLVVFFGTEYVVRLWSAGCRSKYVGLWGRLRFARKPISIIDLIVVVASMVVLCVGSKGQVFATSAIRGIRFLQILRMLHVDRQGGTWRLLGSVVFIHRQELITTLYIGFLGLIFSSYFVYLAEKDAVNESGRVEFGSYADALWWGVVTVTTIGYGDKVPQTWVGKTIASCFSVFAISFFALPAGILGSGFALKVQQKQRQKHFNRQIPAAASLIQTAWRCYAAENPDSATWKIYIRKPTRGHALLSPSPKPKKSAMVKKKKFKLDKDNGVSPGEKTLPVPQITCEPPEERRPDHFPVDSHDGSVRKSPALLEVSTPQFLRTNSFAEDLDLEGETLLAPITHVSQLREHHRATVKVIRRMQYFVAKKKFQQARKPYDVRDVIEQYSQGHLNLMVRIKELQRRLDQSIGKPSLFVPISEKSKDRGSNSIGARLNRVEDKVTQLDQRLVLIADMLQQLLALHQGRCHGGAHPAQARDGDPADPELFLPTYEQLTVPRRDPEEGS
Chain of rabbit Kv7.1/KCNE1 channel (Q28705 whole entry partner): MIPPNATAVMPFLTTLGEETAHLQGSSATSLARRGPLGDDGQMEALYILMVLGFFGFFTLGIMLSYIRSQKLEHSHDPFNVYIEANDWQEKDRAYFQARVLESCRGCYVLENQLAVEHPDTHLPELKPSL
From the text: as §1, §2, §3

[4] = test system: cannabinoid receptor 1 (CB1); set-up: method as in PMID 16467152, PMID 20649563; conditions: cited from earlier work
CB2 = test system: CB2; set-up: method as in PMID 16467152, PMID 20649563; conditions: at concentrations as high as 30 µM; cited from earlier work
[5] = test system: Kv7.1/KCNE1 from all three species; experiment: Two-electrode voltage clamp, summary over channels from all three species; format: cell-based; conditions: predicted from fits, range over human, guinea pig and rabbit channels
From the text: Isolation of Xenopus laevis oocytes was approved by the Linköping Animal Care and Use Committee (Permits #1941 and #14515) and conforms to national and international guidelines. All procedures conform to the guidelines from Directive 2010/63/EU of the European Parliament on the protection of animals used for scientific purposes. A total of 30 female adult (minimum 1 year of age) Xenopus laevis animals (from Nasco, WI, USA) underwent surgery to isolate oocytes. The frogs were anaesthetized for 15 minutes in a bath of 1.4 g/L MS-222 Sandoz (Ethyl 3-aminobenzoate methanesulfonate, Sigma Aldrich, Stockholm). The depth of anesthesia was monitored by checking for reflexes when the paws were pinched. […]
Two-electrode voltage clamp recordings were performed at room temperature using a Dagan CA-1B amplifier (Dagan, MN, USA) or an AxoClamp 900A amplifier (Molecular Devices, CA, USA). […] ARA-S was applied until a stable effect on current amplitude was observed, achieved after approximately 10 minutes, monitored by running an application protocol stepping from a holding voltage of −80 mV to a test voltage of 0 mV every 10 seconds. […]
as §3

TRPV1 channels = test system: TRPV1 channels; set-up: method as in PMID 16467152, PMID 20649563; conditions: at concentrations as high as 30 µM; cited from earlier work
guinea pig heart = test system: guinea pig heart; set-up: method as in PMID 36796231; conditions: cited from earlier work
[6] = biological target: T1, human Kv7.1/KCNE1 channel; set-up: method as in PMID 36796231; conditions: cited from earlier work
[7] = test system: human Kv7.1/KCNE1 channels; set-up: method as in PMID 34601592; conditions: compared between human and rabbit channels; cited from earlier work
[8] = test system: rabbit Kv7.1/KCNE1 channels; set-up: method as in PMID 34601592; conditions: compared between human and rabbit channels; cited from earlier work
[9] = test system: guinea pig-like Kv7.1/KCNE1 channel; set-up: method as in PMID 32223014; conditions: cited from earlier work
[10] = best fit, 0 mV, read-out: EC50 for current amplitude (Iamp) at 0 mV
[11] = best fit, 20 mV, read-out: EC50 for current amplitude (Iamp) at 20 mV
[12] = best fit, 20 mV, read-out: ΔIamp, 20 mV, max
[13] = best fit, 40 mV, read-out: EC50 for current amplitude (Iamp) at 40 mV

CCCCC/C=C\C/C=C\C/C=C\C/C=C\CCCC(=O)NC(CO)C(=O)O (stereo in doubt) [ARA-S, N-arachidonoyl-L-serine]
EC50 ([1]; best fit of concentration-response, n = 5-8, read-out: EC50 for the V50 effect): 6.2 µM | EC50 [1, 10]: 4.7 µM | EC50 [1, 11]: 3 µM | Emax [1, 12]: 733% | EC50 [1, 13]: 4.2 µM | Emax ([1]; best fit, 40 mV, read-out: ΔIamp, 40 mV, max): 631% | Emax ([1]; best fit, maximal change in GMAX, channel has time-dependent GMAX run-up, read-out: ΔGMAX, max): 188% | ΔV50, max ([1]; best fit, maximal shift in V50): −70.4 mV | EC50 ([1]; best fit, read-out: EC50 for the maximal conductance (GMAX) effect): 1.6 µM | Itailmax;ARA-S ([1]; representative cell, 10 µM ARA-S (Itailmax;ctrl = 4.4 µA)): 11.2 µA | V50;ARA-S ([1]; representative cell, 10 µM ARA-S (V50;ctrl = +44.1 mV)): −17.5 mV | ARA-S effect on current amplitude at 0 mV reversed upon washout ([2]; 10 µM of ARA-S, n = 5, mean ± sem): 50 ± 5% | Itailmax;ARA-S ([2]; representative cell, 10 µM ARA-S (Itailmax;ctrl = 6.2 µA)): 10.1 µA | V50;ARA-S ([2]; representative cell, 10 µM ARA-S (V50;ctrl = +30.2 mV)): −23.0 mV | EC50 ([3]; best fit of concentration-response, n = 6-7, read-out: EC50 for the V50 effect): 3.1 µM | EC50 [3, 10]: 2.2 µM | Emax ([3]; best fit, 0 mV, read-out: ΔIamp, 0 mV, max): 515% | EC50 [3, 11]: 1.2 µM | Emax [3, 12]: 225% | ΔV50, max ([3]; best fit, maximal shift in V50): −60.5 mV | Itailmax;ARA-S ([3]; representative cell, 10 µM ARA-S (Itailmax;ctrl = 3.7 µA)): 5.7 µA | V50;ARA-S ([3]; representative cell, 10 µM ARA-S (V50;ctrl = +23.9 mV)): −33.5 mV | binding to cannabinoid receptor 1 (CB1) [4]: bind only weakly | binding to CB2 (CB2): no detectable binding | anticipated maximal effect on V50 [5]: −60 to −80 mV | EC50 ([5]; read-out: concentration required to reach 50% of the maximal effect on V50): 3 to 9 µM | binding to TRPV1 channels (TRPV1 channels): no detectable binding | effect on prolonged QT interval (guinea pig heart): reversed | effect on prolonged action potential duration (guinea pig heart): reversed | EC50 ([6]; best fit of concentration-response, human data duplicated, read-out: EC50 for the V50 effect): 8.9 µM | ΔIamp, 0 mV, max ([6]; best fit, 0 mV): +497% | EC50 [6, 10]: 2 µM | ΔIamp, 20 mV, max ([6]; best fit, 20 mV): +197% | EC50 [6, 11]: 1.4 µM | ΔIamp, 40 mV, max ([6]; best fit, 40 mV): +58% | EC50 [6, 13]: 0.6 µM | ΔGMAX, max ([6]; best fit, maximal change in GMAX): +83% | ΔV50, max ([6]; best fit, maximal shift in V50, human data duplicated): −79.6 mV | EC50 ([6]; best fit, human data duplicated, read-out: EC50 for the maximal conductance (GMAX) effect): 5.7 µM

CC/C=C\C/C=C\C/C=C\C/C=C\C/C=C\C/C=C\CCC(=O)O [DHA, docosahexaenoic acid]
effects on channel [7]: largely comparable activating effects | effects on channel [8]: largely comparable activating effects

CCCCC/C=C\C/C=C\CCCCCCCC(=O)NCC(=O)O [Lin-Gly, linoleoyl glycine]
effects on channel compared to the human Kv7.1/KCNE1 channel [9]: impaired effects

From publication PMC11520554, “The endocannabinoid ARA-S facilitates the activation of cardiac Kv7.1/KCNE1 channels from different species” (Channels, 2024)
